Measurements published in patent EP4385326A1, “BIOPESTICIDE COMPOSITION AND METHOD FOR CONTROLLING AND TREATING BROAD SPECTRUM OF PESTS AND DISEASES IN PLANTS” (Kimitec Biogorup, priority 2022, dated 2024).
Marks after values point to notes of the source that are not given here.

Columns and labels:
[1] = tested on: Frankliniella occidentalis; assay: Contact mortality (Leaf Disc Method); assay type: in vivo; settings: Table 4, application dose 3 cc/l (0.3%), Abbott's corrected
Tetranychus urticae = assay: Contact mortality (Leaf Disc Method); assay type: in vivo; settings: Table 5, application dose 3 cc/l (0.3%), Abbott's corrected
Myzus persicae = assay: Contact mortality (Leaf Disc Method); assay type: in vivo; settings: Table 4, application dose 3 cc/l (0.3%), Abbott's corrected
Tuta absoluta = assay: Contact mortality (Leaf Disc Method); settings: Table 3; application dose 3 cc/l (0.3%); Abbott's corrected; 24 h
Spodoptera littoralis = assay: Contact mortality (Leaf Disc Method); settings: Table 3; application dose 3 cc/l (0.3%); Abbott's corrected; 24 h
Procedure: Which is compared to individual solvent, using different solvents in order to extract active principles from vegetable matrix in the step b) claimed process and a third option that is evaporated the resulting solvent in the extraction process. Vegetable matrix is Carum carvi seed. Three kinds of treatments previously mentioned are: • Treatment A: Individual solvent • Treatment B: Plant extract without solvent. The solvent was removed by vacuum concentration and the composition was prepared using the crude extract in an aqueous solution in 2% Tween^Tm24. • Treatment C: Plant extract with different solvents.
The biopesticidal activity of the different treatments is tested in vitro against two lepidopteran pests: polyphagous Spodoptera littoralis and olyphagous Tuta absoluta. Aside from benzyl alcohol, solvents frequently used to formulate chemical products such as ethanol, isopropanol and water are used in the treatments. Table 3. In vitro trials against chewing lepidopteran pests
The objective of this bioassay is to evaluate the effect of test items on the mortality of adult insects and mites in a short/medium-term (0-24 hours) by topical application. Tests were conducted in plastic net bottles. A total of 10 replicates for each treatment (tests items and negative control) were used in each experiment and temporarily replicated 3 times along the week. (Figure 4)
Numbers of live and dead adult insects and mites were counted at 24 h post-treatment. Adult insects and mites were considered dead if no movement was apparent after probing with the tip of a fine brush under stereoscopic magnifying glass. Mortality percentage was calculated in treatment and control groups. If the mortality in negative control is above 20% the test was discarded.
Means of %M were compared using a one-way analysis of variance (ANOVA, p<0.05) and LSD-test as a post hoc test to verify significant differences between single treatments using Statgraphics Centurion XVII software. When nonnormality in the data was detected, an additional Kruskal-Wallis test was conducted, and Box-and-Whisker Plot (Median Notch) was presented. • Antifeedant effects

Bemisia tabaci = assay: Contact mortality (Leaf Disc Method); assay type: in vivo; settings: Table 4, application dose 3 cc/l (0.3%), Abbott's corrected
[2] = general property stated in the summary; cited from earlier work

With `CCO` [Ethanol (EtOH), Ethanol] the “Contact mortality (%M) Frankliniella occidentalis (immature)” value [1] was 0.0 ± 0.0 ^e %, the “Contact mortality (%M) Tetranychus urticae (adults)” value (Tetranychus urticae) was 0.0 ± 0.0 ^e % and the “Contact mortality (%M) Myzus persicae (adults)” value (Myzus persicae) was 16.7 ± 9.1 ^d %. The “Contact mortality (%M) Tuta absoluta” value (Tuta absoluta) was 0.0 ± 0.0 ^e %, the “Contact mortality (%M) Spodoptera littoralis” value (Spodoptera littoralis) was 0.0 ± 0.0 ^f % and the “Contact mortality (%M) Bemisia tabaci (adults)” value (Bemisia tabaci) was 23.5 ± 8.4 ^d %.
In the case of `OCc1ccccc1` [Benzyl alcohol (BnOH), Benzyl alcohol], the “Contact mortality (%M) Frankliniella occidentalis (immature)” value [1] is reported as 12.5 ± 7.8 ^d %, the “Contact mortality (%M) Tetranychus urticae (adults)” value (Tetranychus urticae) is reported as 33.4 ± 4.1 ^d % and the “Contact mortality (%M) Myzus persicae (adults)” value (Myzus persicae) is reported as 19.8 ± 6.2 ^d %. For the same compound, the solubility in water [2] was 4 g/100 mL, the “Contact mortality (%M) Tuta absoluta” value (Tuta absoluta) was 29.6 ± 5.7 ^d % and the “Contact mortality (%M) Spodoptera littoralis” value (Spodoptera littoralis) was 17.4 ± 6.2 ^de %. For the same compound, the “Contact mortality (%M) Bemisia tabaci (adults)” value (Bemisia tabaci) was 49.8 ± 6.2 ^cd %.
In the case of `O` [Water], the “Contact mortality (%M) Frankliniella occidentalis (immature)” value ([1]; 1440 min) is reported as 0.0 ± 0.0 ^e %, the “Contact mortality (%M) Tetranychus urticae (adults)” value (Tetranychus urticae; 1440 min) is reported as 0.0 ± 0.0 ^e % and the “Contact mortality (%M) Myzus persicae (adults)” value (Myzus persicae; 1440 min) is reported as 0.0 ± 0.0 ^e %. The “Contact mortality (%M) Tuta absoluta” value (Tuta absoluta) was 0.0 ± 0.0 ^e %, the “Contact mortality (%M) Spodoptera littoralis” value (Spodoptera littoralis) was 0.0 ± 0.0 ^f % and the “Contact mortality (%M) Bemisia tabaci (adults)” value (Bemisia tabaci; 1440 min) was 0.0 ± 0.0 ^e %.
For `CC(C)O` [Isopropanol (IPN), Isopropanol], the “Contact mortality (%M) Frankliniella occidentalis (immature)” value [1] was 0.0 ± 0.0 ^e %, the “Contact mortality (%M) Tetranychus urticae (adults)” value (Tetranychus urticae) was 0.0 ± 0.0 ^e % and the “Contact mortality (%M) Myzus persicae (adults)” value (Myzus persicae) was 0.0 ± 0.0 ^e %. For the same compound, the “Contact mortality (%M) Tuta absoluta” value (Tuta absoluta) was 11.4 ± 7.2 ^e %, the “Contact mortality (%M) Spodoptera littoralis” value (Spodoptera littoralis) was 4.2 ± 6.1 ^f % and the “Contact mortality (%M) Bemisia tabaci (adults)” value (Bemisia tabaci) was 0.0 ± 0.0 ^e %.
